Assays:
[1] = system: human Pan T cells (IL-2 release); experiment: Human Pan T Cell IL-2 ELISA; assay type: cell-based
Experimental: Assay Example 4 Human Pan T Cell IL-2 ELISA
A compound was dissolved in DMSO to 10 mM, and then diluted three-fold with DMSO to 9 dosages in a 96-well plate. Then, 10 μL of the diluted compound sample was transferred to a 96-well plate with 90 μL of cell culture medium, and the plate was shaken for 5 minutes. Then, 5 μL of the diluted compound sample was transferred to a 96-well plate with 120 μL of cell culture medium, and the plate was shaken for 5 minutes. According to the experimental design diagram, 50 μL of the diluted compound sample was transferred to a cell plate. Final concentrations of the compound in this assay were 10000.00, 5000, 2500, 1250, 625, 312.5, 156.25, 78.125 and 39.063 nM.
The assay was conducted in a 96-well plate. On the first day of the assay, Anti-CD3 was added to the 96-well plate and incubated in a 4 °C refrigerator overnight. On the second day of the assay, human Pan T cells were recovered, centrifuged and counted. The cell density was adjusted to 1*10^6 cells/ml. Then, 100 μL of cells were added to the 96-well plate washed with PBS and added with Anti-CD3; according to the experimental design diagram, 50 μL of diluted Anti-CD28 and 50 μL of the diluted compound were added to each well, centrifuged, and the cell plate was placed and incubated in an incubator for 48 hours; after 48 hours, the plate was centrifuged and the supernatant was collected for IL-2 ELISA.
The signal value of light absorption was converted into a multiple. Multiple=sample value/the average value of control wells. The average value of control wells refers to the value measured in wells with DMSO added. EC50 values were calculated by XLFit (version 5.3.1.3) in Excel. Equation: Y=Bottom+(Top−Bottom)/(1+(EC50/X)^HillSlope).

[2] = biological target: T1, pSLP76 (Phospho-SLP-76 (Ser376)), Jurkat E6-1 cells (Homo sapiens, UniProt Q92918); experiment: Phospho-SLP-76 (Ser376) HTRF Assay in Jurkat E6-1 cells; assay type: cell-based; conditions: compound 4 hours, then anti-CD3 20 minutes
T1 construct: read-out phospho-SLP-76 (Ser376) HTRF
T1 sequence (Q92918 whole entry): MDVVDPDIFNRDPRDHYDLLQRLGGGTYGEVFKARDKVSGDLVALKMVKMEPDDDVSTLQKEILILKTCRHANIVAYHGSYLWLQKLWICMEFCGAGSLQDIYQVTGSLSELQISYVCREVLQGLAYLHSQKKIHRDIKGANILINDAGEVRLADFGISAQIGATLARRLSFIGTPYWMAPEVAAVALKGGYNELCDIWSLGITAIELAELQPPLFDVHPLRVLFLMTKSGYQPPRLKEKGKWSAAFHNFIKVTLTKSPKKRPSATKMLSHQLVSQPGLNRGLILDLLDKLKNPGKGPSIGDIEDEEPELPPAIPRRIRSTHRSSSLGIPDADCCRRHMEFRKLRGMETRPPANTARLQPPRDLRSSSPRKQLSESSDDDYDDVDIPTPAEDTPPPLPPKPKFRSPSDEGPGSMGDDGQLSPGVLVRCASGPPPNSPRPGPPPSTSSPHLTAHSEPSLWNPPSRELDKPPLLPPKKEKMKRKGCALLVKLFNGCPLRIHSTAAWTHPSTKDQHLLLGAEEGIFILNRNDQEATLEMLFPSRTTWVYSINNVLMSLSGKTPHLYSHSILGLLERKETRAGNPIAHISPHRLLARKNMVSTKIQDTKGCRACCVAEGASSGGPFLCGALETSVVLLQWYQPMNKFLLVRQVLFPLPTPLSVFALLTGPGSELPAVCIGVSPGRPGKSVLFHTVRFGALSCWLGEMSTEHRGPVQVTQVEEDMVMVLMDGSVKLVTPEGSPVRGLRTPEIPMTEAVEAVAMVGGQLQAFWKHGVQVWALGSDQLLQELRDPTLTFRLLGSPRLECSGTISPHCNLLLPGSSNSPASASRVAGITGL
Experimental: Assay Example 3 Phospho-SLP-76 (Ser376) HTRF Assay
A compound was dissolved in DMSO to 10 mM, and then diluted three-fold with DMSO to 10 dosages in a 96-well plate. Then, 3 μL of the diluted compound sample was transferred to a 96-well plate with 97 μL of cell culture medium, and the plate was shaken for 5 minutes. According to the experimental design diagram, 7.5 μL of the diluted compound sample was transferred to a cell plate. Final concentrations of the compound in this assay were 10000.00, 3333.33, 1111.11, 370.37, 123.46, 41.15, 13.72, 4.57, 1.52 and 0.51 nM.
In this assay, the density of Jurkat E6-1 cells was maintained between 3*10^5 to 3*10^6 cells/mL. The cell culture was replaced with fresh culture medium every 2 to 3 days (depending on the cell density). 30 μL of Jurkat E6-1 (300,000 cells) was added to a 96-well plate and incubated in a 37 °C incubator for 1 hour. Then, according to the experimental design diagram, compounds (6×, 7.5 μL) were added to treat the cells for 4 hours, respectively. After 4 hours, purified anti-human anti-CD3 antibodies (6×, 7.5 μL) were added to treat the cells for 20 minutes. After 20 minutes, 15 μL of cell lysis buffer (4×) was added, and the cells were lysed at 25 °C with shaking (250 rpm) for 1 hour. Then, according to the experimental design diagram, 16 μL of cell lysate was transferred to a 384-well plate using a pipette. After the transfer, 4 μL of antibody detection mixture was added. After being placed at room temperature overnight, the plate was read by EnVision multi-function microplate reader to read the FRET signal (the ratio of HTRF 665/615 was calculated from the readings at 665 nm and 615 nm).
The ratio of the signal at 665 nm to the signal at 615 nm was converted to the percentage of inhibition. Inhibition %=(maximum value−sample value)/(maximum value−minimum value)×100. The minimum value refers to the signal value of a well without anti-CD3 antibody stimulation during the treatment of cells, and the maximum value refers to the signal value of a well with anti-CD3 antibody stimulation but without the compound during the treatment of cells. IC50 values were calculated by XLFit (version 5.3.1.3) in excel. Equation: Y=Bottom+(Top−Bottom)/(1+(IC50/X)^HillSlope).

[3] = Anti-CD3/Anti-CD28, 48 hours, IL-2 ELISA
[4] = Homo sapiens, T-cell, 48 h, Anti-CD3/Anti-CD28, IL-2 ELISA
[5] = Homo sapiens, T-cell, 48 h, Anti-CD3/Anti-CD28 stimulation, IL-2 ELISA of supernatant
[6] = Anti-CD3/Anti-CD28 stimulation, 48 hours, IL-2 ELISA of supernatant

Structure (SMILES): COC1CCCn2c(-c3cc4c(c5c3CNC5=O)Nc3ccc(N5CCOCC5)nc3C4(C)C)cnc21 (single isomer, unassigned) [Example 25]
- EC50 [1, 3]: 33.4 nM

Structure (SMILES): Cc1ccn2c(-c3cc4c(c5c3CNC5=O)Nc3ccc(N5CCO[C@H](C(C)(C)O)C5)cc3C4(C)C)cnc2c1F (single isomer, unassigned) [Example 89]
- EC50 [1, 4]: 6.64 nM

Structure (SMILES): CO[C@@H]1CCCn2c(-c3cc4c(c5c3CNC5=O)Nc3ccc(N5CCOCC5)cc3C4(C)C)cnc21 (single isomer, unassigned) [Example 91]
- EC50 [1, 4]: 5.96 nM

Structure (SMILES): CC1(C)c2cc(N3CCO[C@H](C(C)(C)O)C3)ccc2Nc2c1cc(-c1cnc3cc(F)ccn13)c1c2C(=O)NC1 (single isomer, unassigned) [Example 94]
- EC50 [1, 4]: 4.84 nM

Structure (SMILES): Cc1ccc2c(-c3cc4c(c5c3CNC5=O)Nc3ccc(N5CCO[C@H](C(C)(C)O)C5)cc3C4(C)C)cnn2c1 (single isomer, unassigned) [Example 96]
- EC50 [1, 4]: 5.91 nM

Structure (SMILES): Cc1ccn2c(-c3cc4c(c5c3CNC5=O)Nc3ccc(N5CCOC(C(C)(C)O)C5)cc3C4(C)C)cnc2c1 (single isomer, unassigned) [Example 106]
- EC50 [1, 3]: 18.3 nM

Structure (SMILES): COC1CCCn2c(-c3cc4c(c5c3CNC5=O)Nc3ccc(N5CCOC(C(C)(C)O)C5)cc3C4(C)C)cnc21 (single isomer, unassigned) [Example 132]
- EC50 [1, 3]: 10.1 nM

Structure (SMILES): CCO[C@@H]1CCCn2c(-c3cc4c(c5c3CNC5=O)Nc3ccc(N5CCOCC5)cc3C4(C)C)cnc21 (single isomer, unassigned) [Example 137]
- EC50 [1, 4]: 26.8 nM

Structure (SMILES): CO[C@H]1CCn2c(-c3cc4c(c5c3CNC5=O)Nc3ccc(N5CCO[C@@H](C(C)(C)O)C5)cc3C4(C)C)cnc2C1 (single isomer, unassigned) [Example 166]
- EC50 [1, 5]: 15 nM

Structure (SMILES): CC[C@@]1(C)c2cc(N3CCOCC3)ccc2Nc2c1cc(-c1cnc3n1CCC[C@@H]3OC)c1c2C(=O)NC1 (single isomer, unassigned) [Example 167]
- EC50 [1, 6]: 38 nM

Structure (SMILES): CC[C@@]1(C)c2cc(N3CCOCC3)ccc2Nc2c1cc(-c1cnc3n1CCC[C@@H]3OC)c1c2C(=O)NC1 (single isomer, unassigned) [Example 168]
- EC50 [1, 6]: 17 nM

Structure (SMILES): CO[C@@H]1CCn2c(-c3cc4c(c5c3CNC5=O)Nc3ccc(N5CCO[C@@H](C(C)(C)O)C5)cc3C4(C)C)cnc2C1 (single isomer, unassigned) [Example 176]
- EC50 [1, 5]: 31 nM

Structure (SMILES): COC1CCCn2c(-c3cc4c(c5c3CNC5=O)Nc3ccc(N5CCOCC5C)cc3C4(C)C)cnc21 (single isomer, unassigned) [Example 180]
- EC50 [1, 6]: 27 nM

Structure (SMILES): COC1CCCn2c(-c3cc4c(c5c3CNC5=O)Nc3ccc(N5CCOCC5C)cc3C4(C)C)cnc21 (single isomer, unassigned) [Example 181]
- EC50 [1, 6]: 26 nM

Structure (SMILES): CC1(C)c2cc(N3CCOCC3)ccc2Nc2c1cc(-c1cnc3n1CCC[C@@H]3OC1COC1)c1c2C(=O)NC1 (single isomer, unassigned) [Example 221]
- EC50 [1, 5]: 98 nM

Structure (SMILES): Cc1ccn2c(-c3cc4c(c5c3CNC5=O)Nc3ccc(N5CCO[C@H](C(C)(C)O)C5)cc3C4(C)C)cnc2c1 (stereo in doubt) [Example 107]
- EC50 [1, 4]: 11.9 nM

Structure (SMILES): CO[C@H]1CCCn2c(-c3cc4c(c5c3CNC5=O)Nc3ccc(N5CC6CCC5CO6)cc3C4(C)C)cnc21 (stereo in doubt) [Example 204]
- EC50 [1, 5]: 15 nM

Structure (SMILES): CC1(C)c2cc(N3CCOCC3)ccc2Nc2c1cc(-c1cnc3c(Cl)cccn13)c1cc[nH]c(=O)c21 [Example 1]
- IC50 [2]: 121 nM
- EC50 [1, 4]: 3.67 nM

Structure (SMILES): COc1cccn2c(-c3cc4c(c5c(=O)[nH]ccc35)Nc3ccc(N5CCOC(C(C)(C)O)C5)cc3C4(C)C)cnc12 (stereo not shown) [Example 2]
- IC50 [2]: 64 nM

Structure (SMILES): COc1cccn2c(-c3cc4c(c5c(=O)[nH]ccc35)Nc3ccc(N5CCOCC5)cc3C4(C)C)cnc12 [Example 3]
- IC50 [2]: 57.5 nM

Structure (SMILES): CC1(C)c2cc(N3CCOCC3)ccc2Nc2c1cc(-c1cnn3cccnc13)c1cc[nH]c(=O)c21 [Example 4]
- IC50 [2]: 38.1 nM

Structure (SMILES): Cc1ccn2c(-c3cc4c(c5c(=O)[nH]ccc35)Nc3ccc(N5CCOC(C(C)(C)O)C5)cc3C4(C)C)cnc2c1F (stereo not shown) [Example 6]
- IC50 [2]: 164 nM

Structure (SMILES): Cc1ccc2c(-c3cc4c(c5c(=O)[nH]ccc35)Nc3ccc(N5CCOC(C(C)(C)O)C5)cc3C4(C)C)cnn2c1 (stereo not shown) [Example 7]
- IC50 [2]: 487 nM

Structure (SMILES): COc1cccc2c(-c3cc4c(c5c(=O)[nH]ccc35)Nc3ccc(N5CCOCC5)cc3C4(C)C)cnn12 [Example 8]
- IC50 [2]: 103 nM

Structure (SMILES): Cc1ccn2c(-c3cc4c(c5c3CNC5=O)Nc3ccc(N5CCOC(C(C)(C)O)C5)cc3C4(C)C)cnc2c1F (stereo not shown) [Example 9]
- IC50 [2]: 57.8 nM

Structure (SMILES): COc1cccn2c(-c3cc4c(c5c3CNC5=O)Nc3ccc(N5CCOCC5)cc3C4(C)C)cnc12 [Example 10]
- IC50 [2]: 42.7 nM
- EC50 [1, 4]: 4.88 nM

Structure (SMILES): Cc1ccn2c(-c3cc4c(c5c3CNC5=O)Nc3ccc(N5CCOCC5)cc3C4(C)C)cnc2c1F [Example 11]
- IC50 [2]: 73.3 nM

Structure (SMILES): CC1(C)c2cc(N3CCOCC3)ccc2Nc2c1cc(-c1cnc3cccnn13)c1c2C(=O)NC1 [Example 12]
- IC50 [2]: 25.9 nM

Structure (SMILES): COc1cccn2c(-c3cc4c(c5c3CNC5=O)Nc3cnc(N5CCOCC5)cc3C4(C)C)cnc12 [Example 14]
- IC50 [2]: 197 nM

Structure (SMILES): COc1cccc2c(-c3nc4c(c5c3CCNC5=O)Nc3ccc(N5CCOCC5)cc3C4(C)C)cnn12 [Example 15]
- IC50 [2]: 72.2 nM
- EC50 [1, 3]: 3.95 nM

Structure (SMILES): CC1(C)c2cc(N3CCOCC3)ccc2Nc2c1cc(-c1cnn3cccnc13)c1c2C(=O)NC1 [Example 16]
- IC50 [2]: 31.6 nM

Structure (SMILES): CC1(C)c2cc(N3CCOCC3)ccc2Nc2c1cc(-c1cnn3c(C#N)cccc13)c1c2C(=O)NC1 [Example 17]
- IC50 [2]: 56.9 nM

Structure (SMILES): COc1cccc2c(-c3cc4c(c5c3CNC5=O)Nc3ccc(N5CCOCC5)cc3C4(C)C)cnn12 [Example 18]
- IC50 [2]: 66 nM

Structure (SMILES): COc1cccn2c(-c3cc4c(c5c3CNC5=O)Nc3ccc(N5CCOCC5)nc3C4(C)C)cnc12 [Example 20]
- IC50 [2]: 83.6 nM

Structure (SMILES): COc1cccc2c(-c3cc4c(c5c3CNC5=O)Nc3ncc(N5CCOCC5)cc3C4(C)C)cnn12 [Example 21]
- IC50 [2]: 37 nM

Structure (SMILES): COc1ccnn2c(-c3cc4c(c5c3CNC5=O)Nc3ccc(N5CCOCC5)cc3C4(C)C)cnc12 [Example 31]
- IC50 [2]: 58.8 nM

Structure (SMILES): Cc1ccnn2c(-c3cc4c(c5c3CNC5=O)Nc3ccc(N5CCOC(C(C)(C)O)C5)cc3C4(C)C)cnc12 (stereo not shown) [Example 33]
- EC50 [1, 4]: 4.95 nM

Structure (SMILES): Cn1ccn2c(-c3cc4c(c5c3CNC5=O)Nc3ccc(N5CCOCC5)cc3C4(C)C)cnc2c1=O [Example 41]
- IC50 [2]: 13.5 nM

Structure (SMILES): COc1ccnc2c(-c3cc4c(c5c3CNC5=O)Nc3ccc(N5CCOCC5)cc3C4(C)C)cnn12 [Example 66]
- EC50 [1, 4]: 7.83 nM

Structure (SMILES): CO[C@H]1CCCn2c(-c3cc4c(c5c3CNC5=O)Nc3ccc(N5CC6CCC(C5)O6)cc3C4(C)C)cnc21 [Example 196]
- EC50 [1, 5]: 27 nM

Reference: US20260355217A1, “HPK1 INHIBITOR, PREPARATION METHOD THEREFOR, AND USE THEREOF” (Beijing Earthwise Technology Co., Ltd., priority 2022, published 2026)
